Assay results as given in patent publication US3955959A, “Herbicide for use in transplanted rice” (priority 1974, dated 1976).

What was measured:
[1] = system: Broadleaf: Mv, Sz (Monochoria vaginalis, Sphenoclea zeylanica); experiment: Example 4 field test on ordinary rice, weed control, Munoz, Philippines; assay type: in vivo, Monochoria vaginalis and Sphenoclea zeylanica; conditions: obs. 36 DAT
Source text: (§1) Treatments were replicated four times.

[2] = system: Cyperus difformis; experiment: Example 2 field test, weed control, Chia Yi, Taiwan; assay type: in vivo; conditions: obs. 63 DAT
Experimental: In the field tests of the herbicide of this invention with transplanted rice, the rice seedlings were grown in conventional manner, by seeding the rice in a typical seedbed of sandy loam to clay soil of the country wherein the test was conducted. For laboratory and greenhouse work the seedlings were obtained by seeding rice in a mixture of soil, e.g., Ray silt loam, and peat in wood flats. For purposes of testing the herbicides on younger rice seedlings (infant or Dapog) the rice was usually allowed to grow for 6-15 days before lifting for transplanting. Older (ordinary) rice plants were usually grown for a period of about 2-3 weeks, or as much as about 7 weeks before lifting. Since the period of growth is dependent upon climatic conditions, a better measure of when to transplant the rice seedling is the leaf stage of growth; for infant or Dapog rice the seedling is lifted at the 1.5-2 leaf stage of growth, and for ordinary seedlings at the 2.5-5 leaf stage. The seedlings were then transplanted to the test plots for evaluation of the herbicide for injury against weed species present with the transplanted rice. The herbicides were then applied to the growth medium of the weeds and transplant rice, either preemergent or postemergent with respect to the weeds and postemergent with respect to the transplanted rice. […] Application rates given in the tables refer to the amount of active ingredient used.
Rice seedlings (ordinary) of Tainan No. 5 variety (japonica) were transplanted at 19 days of growth. Granular formulations of Herbicides A and B were applied at the 1 leaf stage of grass weed (4 DAT) and 2.5 leaf stage of grass weed (10 DAT).

[3] = system: weeds in ordinary transplanted rice; experiment: Example 4 field test, overall weed control; assay type: in vivo
Source text: as §1

[4] = system: ordinary transplanted rice; experiment: Example 4 field test, crop injury; conditions: obs. 36 DAT
Experimental: (§2) In the tests described in the tables below, the herbicides were formulated and used in granular form in conventional manner. […] The commercial herbicide used was a granular product having 5% active ingredient.
(§3) In the field tests of the herbicide of this invention with transplanted rice, the rice seedlings were grown in conventional manner, by seeding the rice in a typical seedbed of sandy loam to clay soil of the country wherein the test was conducted. For laboratory and greenhouse work the seedlings were obtained by seeding rice in a mixture of soil, e.g., Ray silt loam, and peat in wood flats. For purposes of testing the herbicides on younger rice seedlings (infant or Dapog) the rice was usually allowed to grow for 6-15 days before lifting for transplanting. Older (ordinary) rice plants were usually grown for a period of about 2-3 weeks, or as much as about 7 weeks before lifting. Since the period of growth is dependent upon climatic conditions, a better measure of when to transplant the rice seedling is the leaf stage of growth; for infant or Dapog rice the seedling is lifted at the 1.5-2 leaf stage of growth, and for ordinary seedlings at the 2.5-5 leaf stage. The seedlings were then transplanted to the test plots for evaluation of the herbicide for injury against weed species present with the transplanted rice. The herbicides were then applied to the growth medium of the weeds and transplant rice, either preemergent or postemergent with respect to the weeds and postemergent with respect to the transplanted rice. Application times are designated in the tables as "DAT", meaning "days after transplant". Application rates given in the tables refer to the amount of active ingredient used.
(§4) In this example comparative field tests were conducted with Herbicides A and B on ordinary transplanted rice at Munoz, Philippines.
(§5) Twenty-one (21) day-old ordinary wet bed seedlings of the Fortuna variety were transplanted to field plots and Herbicides A and B applied at 5 DAT and 14 DAT. The field plots were overseeded with barnyardgrass (E. crusgalli) at 2 kgs/ha. Treatments were replicated four times.

[5] = system: ordinary transplanted rice; experiment: Example 4 field test, rice yield; assay type: in vivo, rice (Fortuna variety)
Experimental: as §2, §3, §4, §5

[6] = system: weeds Ec, Ann. Cyp, Mv, Obw, Ea; experiment: Example 5 field test, average weed control, JAAPR, Japan; conditions: 1.5 kg/ha, 7 DAT
Experimental: as §2, §3
The rice seedlings were grown to the 1.7 leaf stage for infant seedlings and to the 5.5 leaf stage for ordinary seedlings. Two days after puddling the soil in which the seedlings were to be transplanted, both infant and ordinary seedlings were transplanted into plots 8.5 m^2.
The weed symbol "Obw" represents "other broadleaf weeds" of unspecified identity. Results presented in Table 5 represent the average of 2 replications.

[7] = system: Dapog transplanted rice; experiment: Example 3 field test, crop injury; conditions: obs. 42 DAT
Experimental: as §2, §3
Eleven (11) day-old Dapog seedlings were transplanted and treated at 5 DAT and 14 DAT with Herbicides A and B. The plots were overseeded with Echinochloa crusgalli seeds at 2 kgs/ha prior to transplanting. Treatments were replicated four times.

[8] = system: Ci (Cyperus iria); experiment: Example 1 field test, weed control in transplanted rice, Iri, Korea; assay type: in vivo; conditions: av. of 36 and 63 DAT
Source text: (§6) In the field test 48 day-old seedlings (Watanabe variety) were transplanted to plots 2.5 × 6 m. seeded with the weed seeds indicated in Table 1. At 5 and 10 DAT periods, the herbicides were applied to the plants (now at the 1.2 and 2.0 leaf stage, respectively, of grass weed) at the indicated rate in kilograms per hectare (kg/ha). The weed control and rice injury results for 3 replications are reported in percentages as of the indicated times of observation. The percentages given in the "Perennials" column are based on the weight of the weeds at 63 DAT, i.e., 42 gms/3.6 m^2 for the weedy check.

[9] = system: Eo (Echinochloa oryzicola); experiment: as above; assay type: in vivo; conditions: av. of 36 and 63 DAT
Source text: as §6

[10] = system: Mv (Monochoria vaginalis); experiment: as above; assay type: in vivo; conditions: av. of 36 and 63 DAT
Source text: as §6

[11] = system: Aj (Aneiliema japonica); experiment: as above; assay type: in vivo; conditions: av. of 36 and 63 DAT
Source text: as §6

[12] = system: Ea (Eleocharis acicularis); experiment: Example 5 field test, weed control, JAAPR, Japan; assay type: in vivo; conditions: 1.5 kg/ha, 7 DAT

**Q.** For `CCCCOCN(C(=O)CCl)c1c(CC)cccc1CC` [Herbicide B, n-(butoxymethyl)-2',6'-diethyl-2-chloroacetanilide, reference compound], which “% Weed control, Broadleaf (Mv,Sz)” value ([1]; 5 DAT, 1.0 kg/ha) is on record?
**A.** 100%

**Q.** What about the “% Weed control, Broadleaf (Mv,Sz)” value ([1]; 5 DAT, 1.5 kg/ha) of the same compound?
**A.** 100%

**Q.** What about the “% Weed control, Broadleaf (Mv,Sz)” value ([1]; 5 DAT, 3.0 kg/ha) of the same compound?
**A.** 100%

**Q.** What about the “% Weed control, Broadleaf (Mv,Sz)” value ([1]; 14 DAT, 1.0 kg/ha) of the same compound?
**A.** 0%

**Q.** And the “% Weed control, Broadleaf (Mv,Sz)” value ([1]; 14 DAT, 1.5 kg/ha)?
**A.** 0%

**Q.** What about the “% Weed control, Broadleaf (Mv,Sz)” value ([1]; 14 DAT, 3.0 kg/ha) of the same compound?
**A.** 50%

**Q.** And the “% Weed Control (Cyperus difformis)” value ([2]; 4 DAT, 1.0 kg/ha)?
**A.** 100%

**Q.** What about the “% Weed Control (Cyperus difformis)” value ([2]; 4 DAT, 1.5 kg/ha) of the same compound?
**A.** 100%

**Q.** What about the “% Weed Control (Cyperus difformis)” value ([2]; 4 DAT, 3.0 kg/ha) of the same compound?
**A.** 100%

**Q.** What about the “% Weed Control (Cyperus difformis)” value ([2]; 10 DAT, 1.0 kg/ha) of the same compound?
**A.** 100%

**Q.** What about the “% Weed Control (Cyperus difformis)” value ([2]; 10 DAT, 1.5 kg/ha) of the same compound?
**A.** 100%

**Q.** What about the “% Weed Control (Cyperus difformis)” value ([2]; 10 DAT, 3.0 kg/ha) of the same compound?
**A.** 100%

**Q.** And the “control of all weeds” value ([3]; 5 DAT)?
**A.** complete control of all weeds

**Q.** And the “weed control in words” value ([3]; 14 DAT, 1.0 and 1.5 kgs/ha)?
**A.** nil

**Q.** What about the weed control ([3]; 14 DAT, 3.0 kgs/ha) of the same compound?
**A.** 50%

**Q.** What about the “Crop Injury (%)” value ([4]; 5 DAT, 1.0 kg/ha) of the same compound?
**A.** 0%

**Q.** What about the “Crop Injury (%)” value ([4]; 5 DAT, 1.5 kg/ha) of the same compound?
**A.** 0%

**Q.** What about the “Crop Injury (%)” value ([4]; 5 DAT, 3.0 kg/ha) of the same compound?
**A.** 0%

**Q.** What about the “Crop Injury (%)” value ([4]; 14 DAT, 1.0 kg/ha) of the same compound?
**A.** 0%

**Q.** And the “Crop Injury (%)” value ([4]; 14 DAT, 1.5 kg/ha)?
**A.** 0%

**Q.** What about the “Crop Injury (%)” value ([4]; 14 DAT, 3.0 kg/ha) of the same compound?
**A.** 0%

**Q.** What about the “yield vs hand weeded check” value ([5]; 1.0 kg/ha, 14 DAT) of the same compound?
**A.** statistically significantly lower than the hand weeded check

**Q.** And the “Yield (% of H.W. Check)” value ([5]; 5 DAT, 1.0 kg/ha)?
**A.** 115%

**Q.** What about the “Yield (% of H.W. Check)” value ([5]; 5 DAT, 1.5 kg/ha) of the same compound?
**A.** 110%

**Q.** And the “Yield (% of H.W. Check)” value ([5]; 5 DAT, 3.0 kg/ha)?
**A.** 100%

**Q.** What about the “Yield (% of H.W. Check)” value ([5]; 14 DAT, 1.0 kg/ha) of the same compound?
**A.** 82%

**Q.** What about the “Yield (% of H.W. Check)” value ([5]; 14 DAT, 1.5 kg/ha) of the same compound?
**A.** 86%

**Q.** What about the “Yield (% of H.W. Check)” value ([5]; 14 DAT, 3.0 kg/ha) of the same compound?
**A.** 94%

**Q.** And the “% Weed Control, Avg.” value ([6]; infant seedlings)?
**A.** 93%

**Q.** And the “% Weed Control, Avg.” value ([6]; ordinary seedlings)?
**A.** 86%

**Q.** What about the “Crop Injury (%)” value ([7]; 5 DAT, 1.0 kg/ha) of the same compound?
**A.** 0%

**Q.** And the “Crop Injury (%)” value ([7]; 5 DAT, 1.5 kg/ha)?
**A.** 0%

**Q.** What about the “Crop Injury (%)” value ([7]; 5 DAT, 3.0 kg/ha) of the same compound?
**A.** 0%

**Q.** What about the “Crop Injury (%)” value ([7]; 14 DAT, 1.0 kg/ha) of the same compound?
**A.** 0%

**Q.** And the “Crop Injury (%)” value ([7]; 14 DAT, 1.5 kg/ha)?
**A.** 0%

**Q.** What about the “Crop Injury (%)” value ([7]; 14 DAT, 3.0 kg/ha) of the same compound?
**A.** 0%

**Q.** And the “% Weed Control (Ci)” value ([8]; 5 DAT, 1.0 kg/ha)?
**A.** 98%

**Q.** What about the “% Weed Control (Ci)” value ([8]; 5 DAT, 1.5 kg/ha) of the same compound?
**A.** 97%

**Q.** What about the “% Weed Control (Ci)” value ([8]; 5 DAT, 3.0 kg/ha) of the same compound?
**A.** 99%

**Q.** What about the “% Weed Control (Ci)” value ([8]; 10 DAT, 1.0 kg/ha) of the same compound?
**A.** 54%

**Q.** And the “% Weed Control (Ci)” value ([8]; 10 DAT, 1.5 kg/ha)?
**A.** 100%

**Q.** What about the “% Weed Control (Ci)” value ([8]; 10 DAT, 3.0 kg/ha) of the same compound?
**A.** 93%

**Q.** And the “% Weed Control (Eo)” value ([9]; 5 DAT, 1.0 kg/ha)?
**A.** 64%

**Q.** And the “% Weed Control (Eo)” value ([9]; 5 DAT, 1.5 kg/ha)?
**A.** 89%

**Q.** And the “% Weed Control (Eo)” value ([9]; 5 DAT, 3.0 kg/ha)?
**A.** 92%

**Q.** What about the “% Weed Control (Eo)” value ([9]; 10 DAT, 1.0 kg/ha) of the same compound?
**A.** 68%

**Q.** And the “% Weed Control (Eo)” value ([9]; 10 DAT, 1.5 kg/ha)?
**A.** 83%

**Q.** And the “% Weed Control (Eo)” value ([9]; 10 DAT, 3.0 kg/ha)?
**A.** 77%

**Q.** What about the “% Weed Control (Mv)” value ([10]; 5 DAT, 1.0 kg/ha) of the same compound?
**A.** 43%

**Q.** And the “% Weed Control (Mv)” value ([10]; 5 DAT, 1.5 kg/ha)?
**A.** 55%

**Q.** What about the “% Weed Control (Mv)” value ([10]; 5 DAT, 3.0 kg/ha) of the same compound?
**A.** 70%

**Q.** And the “% Weed Control (Mv)” value ([10]; 10 DAT, 1.0 kg/ha)?
**A.** 58%

**Q.** What about the “% Weed Control (Mv)” value ([10]; 10 DAT, 1.5 kg/ha) of the same compound?
**A.** 75%

**Q.** And the “% Weed Control (Mv)” value ([10]; 10 DAT, 3.0 kg/ha)?
**A.** 69%

**Q.** What about the “% Weed Control (Aj)” value ([11]; 5 DAT, 1.0 kg/ha) of the same compound?
**A.** 79%

**Q.** And the “% Weed Control (Aj)” value ([11]; 5 DAT, 1.5 kg/ha)?
**A.** 76%

**Q.** And the “% Weed Control (Aj)” value ([11]; 5 DAT, 3.0 kg/ha)?
**A.** 85%

**Q.** What about the “% Weed Control (Aj)” value ([11]; 10 DAT, 1.0 kg/ha) of the same compound?
**A.** 58%

**Q.** What about the “% Weed Control (Aj)” value ([11]; 10 DAT, 1.5 kg/ha) of the same compound?
**A.** 77%

**Q.** What about the “% Weed Control (Aj)” value ([11]; 10 DAT, 3.0 kg/ha) of the same compound?
**A.** 78%

**Q.** And the “control of Ea in words” value [12]?
**A.** complete control

**Q.** What about the “% Weed Control (Ea)” value ([12]; infant seedlings) of the same compound?
**A.** 100%

**Q.** And the “% Weed Control (Ea)” value ([12]; ordinary seedlings)?
**A.** 93%
